# Key:
# [1] = species on record: Homo sapiens; assay: Compound was evaluated for in vitro inhibition of leukotriene (LTB4) in human whole blood (HWB); format: functional
# [2] = target: T1, Polyunsaturated fatty acid 5-lipoxygenase (Homo sapiens, UniProt P09917); assay: Compound was evaluated for in vitro inhibition of recombinant human 5-lipoxygenase (5-LO)
# T1 sequence (P09917 whole entry): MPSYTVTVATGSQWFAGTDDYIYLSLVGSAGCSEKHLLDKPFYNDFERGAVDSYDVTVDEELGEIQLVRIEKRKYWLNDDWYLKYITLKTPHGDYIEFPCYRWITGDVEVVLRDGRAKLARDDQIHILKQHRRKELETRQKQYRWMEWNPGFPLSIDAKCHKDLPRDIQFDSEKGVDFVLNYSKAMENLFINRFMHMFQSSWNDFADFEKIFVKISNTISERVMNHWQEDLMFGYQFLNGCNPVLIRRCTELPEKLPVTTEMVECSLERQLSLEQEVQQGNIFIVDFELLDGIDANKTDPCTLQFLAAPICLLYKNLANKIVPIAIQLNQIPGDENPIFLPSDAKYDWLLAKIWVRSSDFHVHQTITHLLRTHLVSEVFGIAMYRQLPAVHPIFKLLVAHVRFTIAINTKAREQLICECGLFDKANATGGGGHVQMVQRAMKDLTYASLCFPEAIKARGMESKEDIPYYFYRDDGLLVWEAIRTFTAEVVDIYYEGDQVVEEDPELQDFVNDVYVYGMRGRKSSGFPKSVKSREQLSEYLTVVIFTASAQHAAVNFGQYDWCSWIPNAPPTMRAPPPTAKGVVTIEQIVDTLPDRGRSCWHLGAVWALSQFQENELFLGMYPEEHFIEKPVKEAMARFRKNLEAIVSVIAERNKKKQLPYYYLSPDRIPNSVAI
# [3] = Compound was evaluated for in vitro inhibition of leukotriene (LTB4) in human peripheral blood polymorphonuclear leukocytes (HPMN); format: functional
# [4] = system: Rattus norvegicus; assay: The effect on the biosynthesis of leukotriene B4 in vivo was evaluated in the rat pleural cavity using a carrageenan-induced model of inflammation after oral administration at 6 hr; format: functional
Compound,IC50 [1] [nM],IC50 [2] [nM],IC50 [3] [nM],ED50 [4] [mg/kg]
N#Cc1cc(-c2ccoc2)c2ccc(CSc3cc(F)cc(C4(O)CC5COC(C4)O5)c3)cc2n1 (stereo not given),193,124,6,–
N#Cc1cc(-c2ccoc2)c2ccc(OCc3cccc(C4(O)CC5COC(C4)O5)c3)cc2n1 (stereo not given),287,> 3000,10,–
N#Cc1cc(-c2ccoc2)c2ccc(COc3cc(F)cc(C4(O)CC5COC(C4)O5)c3)cc2n1 (stereo not given),–,–,–,< 0.1
O=c1cc(-c2ccoc2)c2ccc(OCc3cccc(C4(O)CC5COC(C4)O5)n3)cc2n1Cc1ccccc1 (stereo not given),160,102,5.8,–
OC1(c2cccc(COc3ccc4c(-c5ccoc5)cncc4c3)n2)CC2COC(C1)O2 (stereo not given),90,1460,10.3,–

# More lines, main results first:
IC50 [1] [nM],IC50 [2] [nM],IC50 [3] [nM],Compound,ED50 [4] [mg/kg]
47,1960,18,N#Cc1cc2cc(OCc3cccc(C4(O)CC5COC(C4)O5)n3)ccc2c(-c2ccoc2)n1 (stereo not given),–
103,36,4,N#Cc1cc(-c2ccoc2)c2ccc(OCc3cccc(C4(O)CC5COC(C4)O5)n3)cc2n1 (stereo not given),–
–,–,1.6,N#Cc1cc(-c2ccoc2)c2ccc(OCc3cccc(C4(O)CC5COC(C4)O5)n3)cc2c1 (stereo not given),–

# From ChEMBL document CHEMBL1131285, “Quinolines as potent 5-lipoxygenase inhibitors: synthesis and biological profile of L-746,530” (Bioorg Med Chem Lett, 1998)
